According to patent US6290995A, “Plant drug for preventing cancer II” (priority 2000, dated 2001):

Assays:
[1] = system: advanced ovarian and breast cancer; conditions: clinical trials, late 1980s and early 1990s; cited from earlier work
[2] = system: c-myb RNA; assay: Inhibition of oncogene c-myb RNA in ML-1 cells (northern blot); format: cell-based; conditions: Homo sapiens, ML1, 10 ng/ml, P <0.01
Method: (§1) Cells were maintained in suspension culture in RPMI 1640 medium supplemented with 7.5% heat-inactivated FBS, Cells growth and viability were assayed by hemocytometer using trypan blue dye exclusion. RNA was isolated by the CsCl gradient modification. RNA pellets were washed twice by reprecipitation in ethanol and quantitated by absorbency at 260 nM. RNA analyzed by electrophoresis of 15 μg of RNA through 1.2% agarose formaldehyde gels followed by northern blot transfer to nitrocellulose.
(§2) Single-standard uniformly labeled DNA probes were prepared. Probe of c-myc was a 1.7 Kb cla-Eco RI restriction fragment containing the 3'exon region of human c-myc and probe of c-myb was 1.0 Kb myb-specific Bam HI fragment. Probes for n-ras contained DNA fragments using a modification of the PCR technique. Probes for myb, myc and n-ras were isolated by electrolution. The isolated fragments were labeled to high specific activity with [α^32 P]-dCTP (3000 ci/mmol). Prehybridization of the filter was performed. The hybridization mixer contained 50,000 cpm of probe. The probes were hybridized at 58° C. in 15 mM NaCl, 1.5 nM sodium citrate for 3 hours. After hybridization, they were exposed to XAR-5 film. Oncogene expression was quantitated by densitometer scanning of the autoradiography.

[3] = system: c-myc RNA; assay: Inhibition of oncogene c-myc RNA in ML-1 cells (northern blot); format: cell-based; conditions: Homo sapiens, ML1, 10 ng/ml, P <0.01
Method: as §1, §2

[4] = system: n-ras RNA; assay: Inhibition of oncogene n-ras RNA in ML-1 cells (northern blot); format: cell-based; conditions: Homo sapiens, ML1, 10 ng/ml, P <0.01
Method: as §1, §2

[5] = system: mouse epidermis; conditions: in words; cited from earlier work

SMILES | clinical activity against advanced ovarian and breast cancer [1] | inhibition at 0.01 µg/mL [2] | inhibition at 0.01 µg/mL [3] | inhibition at 0.01 µg/mL [4] | effect on [3H] thymidine incorporation in mouse epidermis [5]
CC(=O)O[C@H]1C(=O)[C@@]2(C)[C@H]([C@H](OC(=O)c3ccccc3)[C@]3(O)C[C@H](OC(=O)[C@H](O)[C@@H](NC(=O)c4ccccc4)c4ccccc4)C(C)=C1C3(C)C)[C@]1(OC(C)=O)CO[C@@H]1C[C@@H]2O [Taxol] | impressive clinical activities |  |  |  | 
O=C(O)[C@H]1O[C@@H](Oc2cc3oc(-c4ccccc4)cc(=O)c3c(O)c2O)[C@H](O)[C@@H](O)[C@@H]1O [BA, Baicalin] |  | 24.4 ± 3% | 29.3 ± 3.4% | 20.6 ± 3% | 
CCCCCCCCCCCCCC(=O)O[C@@H]1[C@@H](C)[C@@]2(O)[C@@H](C=C(CO)C[C@]3(O)C(=O)C(C)=C[C@@H]23)[C@@H]2C(C)(C)[C@]12OC(C)=O [TPA, tetradecanoyphorbol-13-acetate] |  |  |  |  | remarkable increase
COc1ccc2cc3[n+](cc2c1OC)CCc1cc2c(cc1-3)OCO2 [BE, Berberine] |  | 52 ± 5.8% | 50.5 ± 6.1% | 30.2 ± 3.5% | 
